Measurements as given in EP4644391A1, “NOVEL PHENYLQUINOLONE COMPOUND HAVING ANTIBACTERIAL AND ANTICANCER FUNCTIONS, AND PREPARATION THEREOF” (Alphamol Science Ltd (Shanghai), priority 2022, dated 2024).

Columns and labels:
Assay in all cases: In vitro anticancer activity test (MTT cell proliferation assay)
Format in all cases: cell-based
[1] = tested on: human breast cancer cell MCF-7; conditions: MCF7
Experimental: The anticancer activity of the compounds was tested using an in vitro cancer cell tests. The specific test method is as follows: • 1. Cell recovery and culture method: the cryovial was taken out from the liquid nitrogen container firstly, soaked directly in 37°C warm water, and shaked from time to time to let it thaw as soon as possible. Then, the cryovial was transferred to a clean bench, and the lid was open. […] Then, the supernatant was discarded, complete culture medium containing 10% fetal bovine serum was added to resuspend the cells, the cells was counted, the cell density was adjusted, and then inoculated into a culture bottle. The culture bottle was placed in a cell culture incubator at 5% CO2 and 37°C. The complete culture medium was replaced once the next day and the culture was continued. • 2. Cell passaging method: adherent cells in the logarithmic growth phase were placed in a clean bench, the original culture medium was discarded, and washed three times with 1×PBS. An appropriate amount of 0.25% trypsin digestion solution was added to moisten the cells, and then the trypsin solution was aspirated. […] When 90% of the cells become round, the cells were moved immediately to the clean bench and complete culture medium was added to terminate digestion. Then, the cells were dislodged by pipetting up and down with a rubber-tipped dropper to single cells. The cells were counted, and the cell density was adjusted. The cells were inoculated into a suitable culture bottle or dish, added enough complete culture medium, and placed in a cell culture incubator at 5% CO2 and 37°C for static culture. For suspension cells in the logarithmic phase, the original culture medium was directly centrifuged at 50g for 5 minutes, the supernatant was discarded, and the cells were washed once with PBS and centrifuged. After discarding the supernatant, the complete culture medium was added and the cells were dispersed using a rubber-tipped dropper. The cells are counted, and the cell density was adjusted. […]

[2] = tested on: human malignant melanoma cell A375; conditions: A-375
Experimental: (§1) The anticancer activity of the compounds was tested using an in vitro cancer cell tests. The specific test method is as follows: • 1. Cell recovery and culture method: the cryovial was taken out from the liquid nitrogen container firstly, soaked directly in 37°C warm water, and shaked from time to time to let it thaw as soon as possible. Then, the cryovial was transferred to a clean bench, and the lid was open. The cell suspension was taken into a centrifuge tube using a rubber-tipped dropper and more than 10 times the culture medium was added, mixed well, and centrifuged at 50g for 5 minutes. Then, the supernatant was discarded, complete culture medium containing 10% fetal bovine serum was added to resuspend the cells, the cells was counted, the cell density was adjusted, and then inoculated into a culture bottle. The culture bottle was placed in a cell culture incubator at 5% CO2 and 37°C. The complete culture medium was replaced once the next day and the culture was continued. • 2. Cell passaging method: adherent cells in the logarithmic growth phase were placed in a clean bench, the original culture medium was discarded, and washed three times with 1×PBS. An appropriate amount of 0.25% trypsin digestion solution was added to moisten the cells, and then the trypsin solution was aspirated. The cells were placed in a cell culture incubator at 5% CO2 and 37°C for digestion for a suitable time, and observed under a microscope. When 90% of the cells become round, the cells were moved immediately to the clean bench and complete culture medium was added to terminate digestion. Then, the cells were dislodged by pipetting up and down with a rubber-tipped dropper to single cells. The cells were counted, and the cell density was adjusted. The cells were inoculated into a suitable culture bottle or dish, added enough complete culture medium, and placed in a cell culture incubator at 5% CO2 and 37°C for static culture. For suspension cells in the logarithmic phase, the original culture medium was directly centrifuged at 50g for 5 minutes, the supernatant was discarded, and the cells were washed once with PBS and centrifuged. After discarding the supernatant, the complete culture medium was added and the cells were dispersed using a rubber-tipped dropper. The cells are counted, and the cell density was adjusted. The cells were inoculated into appropriate culture bottles or culture dishes, and sufficient complete culture medium was added, and the cells were cultured in a cell culture incubator at 5% CO2 and 37°C. • 3. Cell proliferation assay: cells in good state in logarithmic phase were taken and appropriate amount of the cells was inoculated into 96-well plates according to the cell passage treatment method, with each well containing 180 µL complete medium. After the cells growth was recovered and the number of cells in each well is 5000±500, a drug was added for treatment. After drug treatment during the experimental time, MTT solution with a final concentration of 0.5 mg/mL was added to each well, and placed in a cell culture incubator at 5% CO2 and 37°C to allow a fully reaction of MTT with cells. After 4 hours, the solution in the 96-well plate was discarded, 100 µL of DMSO was added, and shaked to dissolve the formazan precipitated at the bottom of the plate, and the absorbance value of samples was detected at a wavelength of 570 nm using a microplate reader. Calculation method of cell viability rate: Viability rate = A sample group÷A control group × 100% [formula] • 4. Cell photography step: cells in good state in logarithmic phase were taken and an appropriate amount of cells was inoculated into 96-well plates according to the cell passage treatment method, with each well containing 180 µL complete medium. After the cells growth was recovered and the number of cells in each well is 5000 ± 500, a drug was added for treatment. […]

[3] = tested on: human Burkitt's lymphoma cell Raji
Experimental: as §1

[4] = tested on: human liver cancer cell HepG2
Experimental: as §1

[5] = tested on: human colon cancer cell HCT 116
Experimental: as §1

[6] = tested on: human prostate cancer cell PC-3
Experimental: as §1

[7] = tested on: human gastric cancer cell MGC-803
Experimental: as §1

human glioma cell SNB-19 = tested on: human glioma cell SNB-19
Experimental: as §1

[8] = tested on: pancreatic cancer cell PNAC-1
Experimental: as §1

| SMILES | IC50 [1] [µM] | IC50 [2] [µM] | IC50 [3] [µM] | IC50 [4] [µM] | IC50 [5] [µM] | IC50 [6] [µM] | IC50 [7] [µM] | IC50 (human glioma cell SNB-19) [µM] | IC50 [8] [µM] |
| --- | --- | --- | --- | --- | --- | --- | --- | --- | --- |
| O=C(O)c1cn(C2CC2)c2cc(N3CCNCC3)c(F)cc2c1=O [Ciprofloxacin] | > 100 | > 100 | > 100 | > 100 | > 100 | > 100 | > 100 | > 100 | > 100 |
| O=C(O)c1cn(C2CC2)c2c(Cl)c(-c3ccc(S(=O)(=O)NCCCC(F)(F)F)nc3)c(F)cc2c1=O [Example 29, 8-chloro-1-cyclopropyl-6-fluoro-4-oxo-7-(6-(N-(4,4,4-trifluorobutyl)sulfamoyl)pyridin-3-yl)-1,4-dihydroquinolin-3-carboxylic acid] | 1 to 10 | 1 to 10 | 1 to 10 | 1 to 10 | 1 to 10 | 1 to 10 | 1 to 10 | 1 to 10 | 1 to 10 |
| CCN(CC)CCNC(=O)c1c(C)[nH]c(/C=C2\C(=O)Nc3ccc(F)cc32)c1C [Sunitinib] | 3.2 ± 0.3 | 19.2 ± 4.6 | 20.3 ± 2 | 9.6 ± 2.1 | 20.7 ± 4.6 | 14.7 ± 6.6 | 17.5 ± 2.4 | 6.5 ± 1.2 | 22.4 ± 5.2 |
